Patent US4416884A, “Piperazinylbenzoheterocyclic compounds” (Otsuka Pharmaceutical Co., Ltd., priority 1978, dated 1983)
In brackets after ≈: the same amount, converted by molar mass. Read-outs that look alike come from different tables or passages of the source.

Tests used:
Type in all cases: cell-based
[1] = tested on: Test Organism 17 (Pseudomonas putida IFO 13696); test: influence of the addition of horse serum on the MIC
[2] = tested on: Pseudomonas aeruginosa ATCC 10145; test: antimicrobial activity, serial dilution method on agar plate
In short: (§1)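 Reported figure is the lowest compound level (mcg/ml) inhibiting growth on Heart Infusion agar in a serial plate dilution. Suspensions of 1×10^8 and 1×10^6 cells/ml served as inocula.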

Hafnia alvei IFO 3731 = test: as above
In short: as §1

[3] = tested on: Yersinia enterocolitica 0-3; test: as above
In short: as §1

[4] = tested on: Streptococcus pneumoniae Type II; test: as above
In short: as §1

[5] = tested on: Proteus morganii IID Kono; test: as above; settings: Morganella morganii
In short: as §1

[6] = tested on: Streptococcus pyogenes IID S-23; test: as above
In short: as §1

[7] = tested on: Pseudomonas maltophilia IFO 12692; test: as above; settings: Stenotrophomonas maltophilia, IFO12692, read-out: Minimum Inhibitory Concentration
In short: as §1

Escherichia Coli NIHJ = test: as above
In short: as §1

[8] = tested on: Test Organism 2 (Escherichia Coli NIHJ JC-2 (IFO 12734)); test: influence of the addition of horse serum on the MIC
[9] = tested on: Test Organism 21 (Bacillus subtilis PCI 219); test: as above
[10] = tested on: Pseudomonas fluorescens IFO 12568; test: antimicrobial activity on bacteria which cause infectious diseases in fish
Method: (§2) The antimicrobial activity of the following test compounds on various test organisms listed below was determined by the serial dilution method on agar plate (Heart Infusion agar produced by Difco Co.) (see CHEMOTHERAPY 22, pp. 1126-1128 (1974)), and the minimum inhibitory concentrations (mcg/ml) obtained are shown in Table 1 below.
(§3) A sample of each test organism was prepared so that the population of the organism was 1×10^8 cells/ml (O.D. 660 mμ=0.07 to 0.16) and 1×10^6 cells/ml (which was obtained by diluting the above 1×10^8 cells/ml preparation).
(§4) In the same manner as above, the antimicrobial activity of the following compounds on various test organisms which cause infectious diseases in fish was determined.

[11] = tested on: Aeromonas hydrophila IFO 12658; test: as above
Method: as §2, §3, §4

[12] = tested on: Vibrio anguillarum IFO 13266; test: as above
Method: as §2, §3, §4

[13] = tested on: Pseudomonas fluorescens IFO 12180; test: as above; settings: IFO12180, read-out: Minimum Inhibitory Concentration
Method: as §2, §3, §4

[14] = tested on: Aeromonas hydrophila IFO 12981; test: as above
Method: as §2, §3, §4

[15] = tested on: Aeromonas salmonicida IFO 12659; test: as above
Method: as §2, §3, §4

[16] = tested on: Aeromonas salmonicida IFO 12718; test: as above
Method: as §2, §3, §4

[17] = tested on: Vibrio anguillarum IFO 12710; test: as above
Method: as §2, §3, §4

[18] = tested on: Test Organism 16 (Pseudomonas maltophilia IFO 12692); test: influence of the addition of horse serum on the MIC; settings: Stenotrophomonas maltophilia
[19] = tested on: Test Organism 27 (Streptococcus pneumoniae Type III); test: as above
[20] = read-out: Minimum Inhibitory Concentration, inoculum 1 × 10^6 cells/ml
[21] = read-out: Minimum Inhibitory Concentration, inoculum 1 × 10^8 cells/ml
[22] = read-out: Minimum Inhibitory Concentration, horse serum 0%, inoculum 10^6
[23] = read-out: Minimum Inhibitory Concentration, horse serum 0%, inoculum 10^8
[24] = read-out: Minimum Inhibitory Concentration, horse serum 10%, inoculum 10^6
[25] = read-out: Minimum Inhibitory Concentration, horse serum 10%, inoculum 10^8
[26] = read-out: Minimum Inhibitory Concentration, horse serum 20%, inoculum 10^6
[27] = read-out: Minimum Inhibitory Concentration, horse serum 20%, inoculum 10^8
[28] = read-out: Minimum Inhibitory Concentration, horse serum 40%, inoculum 10^6
[29] = read-out: Minimum Inhibitory Concentration, horse serum 40%, inoculum 10^8

## CC1CCc2c(N3CCNCC3)ccc3c(=O)c(C(=O)O)cn1c23 (stereo not shown) [A]
[1]; IFO13696, read-out: Minimum Inhibitory Concentration, horse serum 0%, inoculum 10^6
  MIC: 0.2 mg/L (≈ 0.611 µM)
[1]; IFO13696, read-out: Minimum Inhibitory Concentration, horse serum 0%, inoculum 10^8
  MIC: 0.4 mg/L (≈ 1.22 µM)
[1]; IFO13696, read-out: Minimum Inhibitory Concentration, horse serum 10%, inoculum 10^6
  MIC: 0.2 mg/L (≈ 0.611 µM)
[1]; IFO13696, read-out: Minimum Inhibitory Concentration, horse serum 10%, inoculum 10^8
  MIC: 0.2 mg/L (≈ 0.611 µM)
[1]; IFO13696, read-out: Minimum Inhibitory Concentration, horse serum 20%, inoculum 10^6
  MIC: 0.2 mg/L (≈ 0.611 µM)
[1]; IFO13696, read-out: Minimum Inhibitory Concentration, horse serum 20%, inoculum 10^8
  MIC: 0.2 mg/L (≈ 0.611 µM)
[1]; IFO13696, read-out: Minimum Inhibitory Concentration, horse serum 40%, inoculum 10^6
  MIC: 0.2 mg/L (≈ 0.611 µM)
[1]; IFO13696, read-out: Minimum Inhibitory Concentration, horse serum 40%, inoculum 10^8
  MIC: 0.2 mg/L (≈ 0.611 µM)
[2]; ATCC10145, read-out: Minimum Inhibitory Concentration, inoculum 1 × 10^6 cells/ml
  MIC: 6.3 mg/L (≈ 19.2 µM)
[2]; ATCC10145, read-out: Minimum Inhibitory Concentration, inoculum 1 × 10^8 cells/ml
  MIC: 6.3 mg/L (≈ 19.2 µM)
Hafnia alvei IFO 3731; IFO3731, read-out: Minimum Inhibitory Concentration, inoculum 1 × 10^6 cells/ml
  MIC: 3.1 mg/L (≈ 9.47 µM)
Hafnia alvei IFO 3731; IFO3731, read-out: Minimum Inhibitory Concentration, inoculum 1 × 10^8 cells/ml
  MIC: 6.3 mg/L (≈ 19.2 µM)
[3]; Yersinia enterocolitica, 03, read-out: Minimum Inhibitory Concentration, inoculum 1 × 10^6 cells/ml
  MIC: 1.6 mg/L (≈ 4.89 µM)
[3]; Yersinia enterocolitica, 03, read-out: Minimum Inhibitory Concentration, inoculum 1 × 10^8 cells/ml
  MIC: 3.1 mg/L (≈ 9.47 µM)
[4]; [20]
  MIC: 6.3 mg/L (≈ 19.2 µM)
[4]; [21]
  MIC: 25 mg/L (≈ 76.4 µM)
[5]; [20]
  MIC: 3.1 mg/L (≈ 9.47 µM)
[5]; [21]
  MIC: 6.3 mg/L (≈ 19.2 µM)
[6]; IIDS23, read-out: Minimum Inhibitory Concentration, inoculum 1 × 10^6 cells/ml
  MIC: 12.5 mg/L (≈ 38.2 µM)
[6]; IIDS23, read-out: Minimum Inhibitory Concentration, inoculum 1 × 10^8 cells/ml
  MIC: 25 mg/L (≈ 76.4 µM)
[7]
  MIC: 12.5 mg/L (≈ 38.2 µM)
Escherichia Coli NIHJ; [20]
  MIC: 0.4 mg/L (≈ 1.22 µM)
Escherichia Coli NIHJ; [21]
  MIC: 0.8 mg/L (≈ 2.44 µM)
[8]; [22]
  MIC: 1.6 mg/L (≈ 4.89 µM)
[8]; [23]
  MIC: 1.6 mg/L (≈ 4.89 µM)
[8]; [24]
  MIC: 0.8 mg/L (≈ 2.44 µM)
[8]; [25]
  MIC: 0.8 mg/L (≈ 2.44 µM)
[8]; [26]
  MIC: 0.8 mg/L (≈ 2.44 µM)
[8]; [27]
  MIC: 0.8 mg/L (≈ 2.44 µM)
[8]; [28]
  MIC: 0.4 mg/L (≈ 1.22 µM)
[8]; [29]
  MIC: 0.4 mg/L (≈ 1.22 µM)
[9]; [22]
  MIC: 3.1 mg/L (≈ 9.47 µM)
[9]; [23]
  MIC: 6.3 mg/L (≈ 19.2 µM)
[9]; [24]
  MIC: 3.1 mg/L (≈ 9.47 µM)
[9]; [25]
  MIC: 3.1 mg/L (≈ 9.47 µM)
[9]; [26]
  MIC: 0.8 mg/L (≈ 2.44 µM)
[9]; [27]
  MIC: 1.6 mg/L (≈ 4.89 µM)
[9]; [28]
  MIC: 0.8 mg/L (≈ 2.44 µM)
[9]; [29]
  MIC: 0.8 mg/L (≈ 2.44 µM)
[10]; IFO12568, read-out: Minimum Inhibitory Concentration, inoculum 10^6
  MIC: 12.5 mg/L (≈ 38.2 µM)
[10]; IFO12568, read-out: Minimum Inhibitory Concentration, inoculum 10^8
  MIC: 25 mg/L (≈ 76.4 µM)
[11]; IFO12658, inoculum 10^6, read-out: Minimum Inhibitory Concentration
  MIC: 0.1 mg/L (≈ 0.305 µM)
[11]; IFO12658, inoculum 10^8, read-out: Minimum Inhibitory Concentration
  MIC: 0.2 mg/L (≈ 0.611 µM)
[12]; IFO13266, read-out: Minimum Inhibitory Concentration, inoculum 10^6
  MIC: 0.1 mg/L (≈ 0.305 µM)
[12]; IFO13266, read-out: Minimum Inhibitory Concentration, inoculum 10^8
  MIC: 0.2 mg/L (≈ 0.611 µM)
[13]
  MIC: 3.1 mg/L (≈ 9.47 µM)
[14]; IFO12981, inoculum 10^6, read-out: Minimum Inhibitory Concentration
  MIC: 0.2 mg/L (≈ 0.611 µM)
[14]; IFO12981, inoculum 10^8, read-out: Minimum Inhibitory Concentration
  MIC: 0.2 mg/L (≈ 0.611 µM)
[15]; IFO12659, inoculum 10^6, read-out: Minimum Inhibitory Concentration
  MIC: 0.2 mg/L (≈ 0.611 µM)
[15]; IFO12659, inoculum 10^8, read-out: Minimum Inhibitory Concentration
  MIC: 0.4 mg/L (≈ 1.22 µM)
[16]; IFO12718, inoculum 10^6, read-out: Minimum Inhibitory Concentration
  MIC: 0.2 mg/L (≈ 0.611 µM)
[16]; IFO12718, inoculum 10^8, read-out: Minimum Inhibitory Concentration
  MIC: 0.4 mg/L (≈ 1.22 µM)
[17]; IFO12710, read-out: Minimum Inhibitory Concentration, inoculum 10^6
  MIC: 3.1 mg/L (≈ 9.47 µM)
[17]; IFO12710, read-out: Minimum Inhibitory Concentration, inoculum 10^8
  MIC: 3.1 mg/L (≈ 9.47 µM)
[18]; IFO12692, read-out: Minimum Inhibitory Concentration, horse serum 0%, inoculum 10^6
  MIC: 1.6 mg/L (≈ 4.89 µM)
[18]; IFO12692, read-out: Minimum Inhibitory Concentration, horse serum 0%, inoculum 10^8
  MIC: 3.1 mg/L (≈ 9.47 µM)
[18]; IFO12692, read-out: Minimum Inhibitory Concentration, horse serum 10%, inoculum 10^6
  MIC: 1.6 mg/L (≈ 4.89 µM)
[18]; IFO12692, read-out: Minimum Inhibitory Concentration, horse serum 10%, inoculum 10^8
  MIC: 1.6 mg/L (≈ 4.89 µM)
[18]; IFO12692, read-out: Minimum Inhibitory Concentration, horse serum 20%, inoculum 10^6
  MIC: 0.8 mg/L (≈ 2.44 µM)
[18]; IFO12692, read-out: Minimum Inhibitory Concentration, horse serum 20%, inoculum 10^8
  MIC: 0.8 mg/L (≈ 2.44 µM)
[18]; IFO12692, read-out: Minimum Inhibitory Concentration, horse serum 40%, inoculum 10^6
  MIC: 0.4 mg/L (≈ 1.22 µM)
[18]; IFO12692, read-out: Minimum Inhibitory Concentration, horse serum 40%, inoculum 10^8
  MIC: 0.8 mg/L (≈ 2.44 µM)
[19]; [22]
  MIC: 6.3 mg/L (≈ 19.2 µM)
[19]; [23]
  MIC: 12.5 mg/L (≈ 38.2 µM)
[19]; [24]
  MIC: 6.3 mg/L (≈ 19.2 µM)
[19]; [25]
  MIC: 6.3 mg/L (≈ 19.2 µM)
[19]; [26]
  MIC: 6.3 mg/L (≈ 19.2 µM)
[19]; [27]
  MIC: 6.3 mg/L (≈ 19.2 µM)
[19]; [28]
  MIC: 3.1 mg/L (≈ 9.47 µM)
[19]; [29]
  MIC: 6.3 mg/L (≈ 19.2 µM)
